Activity, inhibition and IC50 data for seven compounds are collected here from ChEMBL document CHEMBL6177967, “Semisynthesis and biological evaluation of 17-hydroxybrevianamide N derivatives as anti-inflammatory agents by mediating NF-κB and MAPK signaling pathways” (Eur J Med Chem, 2025).

Data set [1] deals with RAW264.7. The data set is described as follows: Cytotoxicity against mouse RAW264.7 cells assessed as inhibition of cell growth at 10 uM incubated for 24 hrs by MTT assay. It counts as toxicity, cell-based. Particulars: raw264.7, 24 h. On the technique in general: Formazan colour is commonly taken as a measure of viable cells.
In data set [2] the test system is RAW264.7. The data set is described as follows: Cytotoxicity against mouse RAW264.7 cells assessed as inhibition of cell growth at 50 uM incubated for 24 hrs by MTT assay. Format: toxicity, cell-based. The conditions noted are these: raw264.7, 24 h.
The subject of data set [3] is RAW264.7. Kind of data set: Anti-inflammatory activity in LPS-induced mouse RAW264.7 cells assessed as inhibition of NO levels at 2 uM incubated for 24 hrs. Format: functional, cell-based.
The test system of data set [4] is RAW264.7. The data set is described as follows: Anti-inflammatory activity in LPS-induced mouse RAW264.7 cells assessed as inhibition of IL-6 level at 20 uM incubated for 24 hrs by ELISA relative to control. Format: functional. On the technique in general: An ELISA detects its analyte on a solid surface through an enzyme-linked reagent.
Data set [5] concerns RAW264.7. The data set is described as follows: Anti-inflammatory activity in LPS-induced mouse RAW264.7 cells assessed as inhibition of TNF-alpha level at 20 uM incubated for 24 hrs by ELISA relative to control. It counts as functional.
Data set [6] deals with RAW264.7. Kind of data set: Anti-inflammatory activity in LPS-induced mouse RAW264.7 cells assessed as inhibition of NO levels incubated for 24 hrs. Format: functional, cell-based. The conditions noted are these: RAW264.7, 24 h.
For data set [7], the system named is RAW264.7. Kind of data set: Anti-inflammatory activity in LPS-induced mouse RAW264.7 cells assessed as inhibition of IL-1beta level at 20 uM incubated for 24 hrs by ELISA relative to control. It counts as functional.
In data set [8] the test system is RAW264.7. Kind of data set: Inhibition of MAPK signaling pathway in LPS-induced mouse RAW264.7 cells assessed as reduction in SAPK/JNK phosphorylation at 0.2 uM incubated for 24 hrs by Western blot analysis. Format: cell-based. For orientation: In western blotting, separated proteins are transferred to a membrane and probed.
Data set [9] can be described thus: Downregulation of MAPK protein expression in LPS-induced mouse RAW264.7 cells at 0.2 uM incubated for 24 hrs by Western blot analysis relative to control. It counts as functional.
The test system of data set [10] is RAW264.7. The data set is described as follows: Inhibition of NFkappaB pathway activation in LPS-induced mouse RAW264.7 cells assessed as inhibition of p65 phosphorylation at 0.2 uM incubated for 24 hrs by Western blot analysis. Format: cell-based.
Data set [11] relates to RAW264.7. Kind of data set: Inhibition of MAPK signaling pathway in LPS-induced mouse RAW264.7 cells assessed as reduction in phosphorylated SAPK/JNK level at 10 uM incubated for 24 hrs by Western blot analysis. Format: cell-based.
Data set [12] deals with RAW264.7. The data set is described as follows: Cytotoxicity against mouse RAW264.7 cells assessed as inhibition of cell growth at 2 uM incubated for 24 hrs by MTT assay. It counts as toxicity, cell-based. Particulars: raw264.7, 24 h.
Data set [13] concerns RAW264.7. The data set is described as follows: Inhibition of MAPK signaling pathway in LPS-induced mouse RAW264.7 cells assessed as reduction in ERK phosphorylation at 0.2 uM incubated for 24 hrs by Western blot analysis. It counts as cell-based.
In data set [14] the test system is RAW264.7. Kind of data set: Anti-inflammatory activity in LPS-induced mouse RAW264.7 cells assessed as inhibition of IL-1beta level at 2 uM incubated for 24 hrs by ELISA relative to control. It counts as functional.
Data set [15] relates to RAW264.7. Kind of data set: Anti-inflammatory activity in LPS-induced mouse RAW264.7 cells assessed as inhibition of IL-6 level at 2 uM incubated for 24 hrs by ELISA relative to control. It counts as functional.
The subject of data set [16] is RAW264.7. Kind of data set: Inhibition of MAPK signaling pathway in LPS-induced mouse RAW264.7 cells assessed as reduction in p38 phosphorylation at 0.2 uM incubated for 24 hrs by Western blot analysis. It counts as cell-based.
Data set [17] has as its system RAW264.7. The data set is described as follows: Inhibition of MAPK signaling pathway in LPS-induced mouse RAW264.7 cells assessed as reduction in phosphorylated p38 level at 10 uM incubated for 24 hrs by Western blot analysis. Format: cell-based.
Data set [18] has as its system RAW264.7. Kind of data set: Anti-inflammatory activity in LPS-induced mouse RAW264.7 cells assessed as inhibition of TNF-alpha level at 2 uM incubated for 24 hrs by ELISA relative to control. Format: functional.
Data set [19] relates to RAW264.7. Kind of data set: Inhibition of NFkappaB pathway activation in LPS-induced mouse RAW264.7 cells assessed as inhibition of IKBalpha phosphorylation at 10 uM incubated for 24 hrs by Western blot analysis. It counts as cell-based.
Data set [20] deals with RAW264.7. The data set is described as follows: Inhibition of NFkappaB pathway activation in LPS-induced mouse RAW264.7 cells assessed as reduction in phosphorylated p65 level at 0.2 to 10 uM incubated for 24 hrs by Western blot analysis relative to control. The conditions noted are these: dose 0.2-10 µM. It counts as cell-based.
Data set [21] has as its system RAW264.7. Kind of data set: Inhibition of NFkappaB pathway activation in LPS-induced mouse RAW264.7 cells assessed as reduction in phosphorylated IKBalpha level at 10 uM incubated for 24 hrs by Western blot analysis relative to control. It counts as cell-based.

Active and inactive are the calls of the source. The calls are words filed in the database; no cut-off is given here. A value given as a limit tells only on which side of the number the result lay.

Regarding `O=C1c2nc3ccccc3c(=O)n2C(Cc2ccccc2O)C(=O)N1Cc1ccccc1Cl` (racemic), the Activity entry is “Non-toxic” with RAW264.7 [1], “Non-toxic” in the data set on RAW264.7 [2] and “Active; Strong Ability Of No Inhibition Observed” with RAW264.7 [3].
`C=CCOc1ccccc1CC1C(=O)N(C)C(=O)c2nc3ccccc3c(=O)n21` (racemic): the Activity result in the data set with RAW264.7 [1] is listed as “Non-toxic”; in the data set with RAW264.7 [2] it was “Toxic”; in the data set on RAW264.7 [3], “Active; Strong Ability Of No Inhibition Observed”.
For `Cc1ccc(CN2C(=O)c3nc4ccccc4c(=O)n3C(Cc3ccccc3O)C2=O)cc1` (racemic), the Activity result with RAW264.7 [1] and in the data set with RAW264.7 [2] was “Non-toxic” throughout.
For the compound `CNC(=N)NCCC[C@H](N)C(=O)O` [TILARGININE], the results for the inhibition at 20 µM in the data set on RAW264.7 [4], with RAW264.7 [5] and with RAW264.7 [7] were 27.6%, 19.4% and 61.9%, respectively. Moreover, in the data set with RAW264.7 [6], the IC50 came to 20 µM.
For the compound `CN1C(=O)c2nc3ccccc3c(=O)n2C(Cc2ccccc2OCC#N)C1=O` (racemic), the values for the Activity result in the data set with RAW264.7 [1], in the data set with RAW264.7 [2] and in the data set on RAW264.7 [3] were “Non-toxic”, “Non-toxic” and “Active; Strong Ability Of No Inhibition Observed”, respectively.
In the case of `CN1C(=O)C(Cc2ccccc2O)n2c(nc3ccccc3c2=O)C1(O)c1ccccc1` (racemic), the Activity result in the data set with RAW264.7 [1] and in the data set on RAW264.7 [2] was “Non-toxic” each time.
As for `C=CCOc1ccccc1C[C@H]1C(=O)N(C)C(=O)c2nc3ccccc3c(=O)n21`, the inhibition entry in the data set on RAW264.7 [8], in the data set on RAW264.7 [10], in the data set on RAW264.7 [13], with RAW264.7 [16] and in the data set on RAW264.7 [19] was “Active” in each case. Also, the Activity in data set [9] was more than 30%; in the data set on RAW264.7 [12], “Non-toxic”. Further, the inhibition entry in the data set with RAW264.7 [11] is “Active; Reduction In Cellular P-Sapk/Jnk Level Was Almost Close To Untreated Control”; in the data set with RAW264.7 [17], “Active; Reduction In Cellular P-P38 Level Was Almost Close To Untreated Control”; in the data set on RAW264.7 [20], 50%; in the data set with RAW264.7 [21], 59%. Besides, the inhibition at 2 µM in the data set with RAW264.7 [14] was determined as 92.9%; in the data set with RAW264.7 [15], 54.5%; in the data set on RAW264.7 [18], 25.6%. In addition, the IC50 in the data set with RAW264.7 [6] was determined as 0.5 µM.

What is called inhibition is the relative decrease from the control value, in per cent. Broadly, the IC50 is the concentration that inhibits the measured activity by half.
